Data set [1] in a line: DRUGMATRIX: Platelet-Derived Growth Factor (PDGF) radioligand binding (ligand: [125I] PDGF). Type of data set: cell-based. The settings on record: nih3t3; Not Active = under 50% inhibition at 10 µM.
Data set [2] addresses T1, C-X-C chemokine receptor type 2 (Homo sapiens, UniProt P25025).
T1 sequence (P25025 whole entry): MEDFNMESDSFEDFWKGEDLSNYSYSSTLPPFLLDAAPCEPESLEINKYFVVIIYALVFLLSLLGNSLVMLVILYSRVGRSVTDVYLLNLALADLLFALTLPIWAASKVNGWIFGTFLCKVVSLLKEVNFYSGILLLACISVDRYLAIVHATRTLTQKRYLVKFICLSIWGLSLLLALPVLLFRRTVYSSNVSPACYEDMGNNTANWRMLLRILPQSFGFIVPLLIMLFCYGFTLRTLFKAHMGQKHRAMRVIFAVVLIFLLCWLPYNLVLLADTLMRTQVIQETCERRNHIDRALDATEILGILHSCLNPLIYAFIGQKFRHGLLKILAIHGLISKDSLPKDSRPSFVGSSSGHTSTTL
It counts as cell membranes, CHO-K1, Membrane. To be noted: cho-k1.

Data set [3] in a line: DRUGMATRIX: Phorbol Ester radioligand binding (ligand: [3H] PDBu). It counts as cell membranes, Mus musculus, ICR, Brain, Membrane. To be noted: Not Active = under 50% inhibition at 10 µM.
For the next data set, the target named is Cytochrome P450 2C9 (Homo sapiens, UniProt P11712). To be noted: bti-tn-5b1-4. Further: in other assays of this panel Not Active means under 50% inhibition at 10 µM.
The target of the next data set is Cytochrome P450 2E1 (Homo sapiens, UniProt P05181). The settings on record: bti-tn-5b1-4. Further: in other assays of this panel Not Active means under 50% inhibition at 10 µM.
The next data set concerns the target T2, B2 bradykinin receptor (Homo sapiens, UniProt P30411). Further: in other assays of this panel Not Active means under 50% inhibition at 10 µM.
T2 sequence (P30411 whole entry): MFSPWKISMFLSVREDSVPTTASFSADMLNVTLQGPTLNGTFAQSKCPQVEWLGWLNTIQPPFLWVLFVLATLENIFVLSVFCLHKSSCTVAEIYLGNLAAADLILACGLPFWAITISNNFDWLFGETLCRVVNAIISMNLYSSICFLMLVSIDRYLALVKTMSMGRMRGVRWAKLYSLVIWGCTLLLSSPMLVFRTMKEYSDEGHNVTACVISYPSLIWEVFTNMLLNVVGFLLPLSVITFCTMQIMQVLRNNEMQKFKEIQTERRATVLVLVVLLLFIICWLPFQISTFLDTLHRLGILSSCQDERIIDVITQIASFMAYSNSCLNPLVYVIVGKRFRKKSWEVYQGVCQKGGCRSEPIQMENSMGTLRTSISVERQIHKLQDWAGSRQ
Type of data set: cell membranes, Membrane. The settings on record: chem-1.

In the next data set the target is T3, Cytochrome P450 2A6 (Homo sapiens, UniProt P11509). Further: in other assays of this panel Not Active means under 50% inhibition at 10 µM.
T3 sequence (P11509 whole entry): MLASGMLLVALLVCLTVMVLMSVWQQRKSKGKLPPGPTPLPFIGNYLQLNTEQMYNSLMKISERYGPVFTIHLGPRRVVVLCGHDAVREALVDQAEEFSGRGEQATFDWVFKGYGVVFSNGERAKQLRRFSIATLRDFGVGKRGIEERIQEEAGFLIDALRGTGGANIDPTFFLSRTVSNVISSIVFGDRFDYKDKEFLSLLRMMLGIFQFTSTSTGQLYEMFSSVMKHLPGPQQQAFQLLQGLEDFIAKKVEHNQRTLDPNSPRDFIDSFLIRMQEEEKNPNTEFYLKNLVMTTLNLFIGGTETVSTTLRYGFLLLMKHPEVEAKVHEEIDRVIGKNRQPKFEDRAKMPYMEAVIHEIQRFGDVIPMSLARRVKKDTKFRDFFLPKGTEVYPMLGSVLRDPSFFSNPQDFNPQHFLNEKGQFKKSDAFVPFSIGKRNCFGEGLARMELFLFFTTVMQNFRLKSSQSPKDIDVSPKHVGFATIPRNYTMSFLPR
The settings on record: bti-tn-5b1-4.

Data set [4] concerns the target 5-hydroxytryptamine receptor 2B (Homo sapiens, UniProt P41595). It counts as cell membranes, CHO-K1, Membrane. To be noted: for Ki: read-out: Ki.

IC50 and Ki data for 13 compounds are collected here from ChEMBL document CHEMBL1909046, “DrugMatrix in vitro pharmacology data”.

SMILES strings stand for the structures.

Chain of 5-hydroxytryptamine receptor 2B (P41595 whole entry): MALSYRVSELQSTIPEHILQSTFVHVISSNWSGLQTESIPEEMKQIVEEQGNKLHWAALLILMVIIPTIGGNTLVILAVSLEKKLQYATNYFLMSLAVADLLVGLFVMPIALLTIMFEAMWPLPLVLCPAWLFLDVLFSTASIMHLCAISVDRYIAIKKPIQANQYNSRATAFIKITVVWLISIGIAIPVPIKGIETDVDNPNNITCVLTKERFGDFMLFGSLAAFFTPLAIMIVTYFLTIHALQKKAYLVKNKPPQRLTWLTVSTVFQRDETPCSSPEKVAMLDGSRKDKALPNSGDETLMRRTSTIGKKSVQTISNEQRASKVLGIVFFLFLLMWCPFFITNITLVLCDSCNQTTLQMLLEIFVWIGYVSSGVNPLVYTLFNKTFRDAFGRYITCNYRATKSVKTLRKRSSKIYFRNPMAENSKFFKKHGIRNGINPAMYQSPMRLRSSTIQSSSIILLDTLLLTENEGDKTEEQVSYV
Chain of Cytochrome P450 2E1 (P05181 whole entry): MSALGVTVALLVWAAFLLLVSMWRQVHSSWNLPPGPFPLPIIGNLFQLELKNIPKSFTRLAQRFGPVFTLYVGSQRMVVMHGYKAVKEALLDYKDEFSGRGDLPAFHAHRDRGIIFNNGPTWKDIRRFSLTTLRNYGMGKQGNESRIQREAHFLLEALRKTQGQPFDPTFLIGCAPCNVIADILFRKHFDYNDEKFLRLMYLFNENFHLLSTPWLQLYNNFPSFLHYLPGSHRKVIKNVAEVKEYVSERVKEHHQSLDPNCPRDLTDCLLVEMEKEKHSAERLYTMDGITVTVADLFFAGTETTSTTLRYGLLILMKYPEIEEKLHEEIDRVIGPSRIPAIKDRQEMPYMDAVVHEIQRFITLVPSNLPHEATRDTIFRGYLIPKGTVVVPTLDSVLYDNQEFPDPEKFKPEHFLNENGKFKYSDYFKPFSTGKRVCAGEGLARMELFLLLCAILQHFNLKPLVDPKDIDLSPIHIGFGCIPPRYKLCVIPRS
Chain of Cytochrome P450 2C9 (P11712 whole entry): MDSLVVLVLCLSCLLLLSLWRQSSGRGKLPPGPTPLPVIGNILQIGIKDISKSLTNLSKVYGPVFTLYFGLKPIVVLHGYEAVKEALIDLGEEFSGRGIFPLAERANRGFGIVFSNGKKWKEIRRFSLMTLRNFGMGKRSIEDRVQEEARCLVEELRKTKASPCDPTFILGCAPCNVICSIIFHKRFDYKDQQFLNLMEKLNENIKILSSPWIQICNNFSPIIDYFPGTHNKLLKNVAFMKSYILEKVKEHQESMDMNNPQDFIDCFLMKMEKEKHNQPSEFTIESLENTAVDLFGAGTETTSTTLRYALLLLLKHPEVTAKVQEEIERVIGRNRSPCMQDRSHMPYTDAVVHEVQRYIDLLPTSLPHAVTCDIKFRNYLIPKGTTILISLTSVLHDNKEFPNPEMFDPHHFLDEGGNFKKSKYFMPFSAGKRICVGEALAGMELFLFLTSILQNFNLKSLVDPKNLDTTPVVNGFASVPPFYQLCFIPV

Consider `C=CCN1CC[C@]23c4c5ccc(O)c4O[C@H]2/C(=N/N=C2\CC[C@@]4(O)[C@H]6Cc7ccc(O)c8c7[C@@]4(CCN6CC=C)[C@H]2O8)CC[C@@]3(O)[C@H]1C5` [NALOXONAZINE], for which the IC50 result (in data set [1]; in data set [2]; in data set [3]; against Cytochrome P450 2C9; against Cytochrome P450 2E1; at B2 bradykinin receptor) was “Not Active” in each case. Moreover, the IC50 entry (at Cytochrome P450 2A6; in data set [4] (cho-k1)) was “Not Active” throughout. Also, the Ki entry (in data set [1]; in data set [3]; at Cytochrome P450 2C9; at Cytochrome P450 2E1; at Cytochrome P450 2A6) was “Not Active” throughout.

Consider `Cc1ccnc2c1NC(=O)c1cccnc1N2C1CC1` [NEVIRAPINE], for which the IC50 result (in data set [1]; in data set [2]; in data set [3]; against Cytochrome P450 2C9; at Cytochrome P450 2E1; at B2 bradykinin receptor) was “Not Active” each time. The IC50 entry (at Cytochrome P450 2A6; in data set [4] (cho-k1)) was “Not Active” in each case. For the same compound, the Ki result (in data set [1]; in data set [3]; at Cytochrome P450 2C9; at Cytochrome P450 2E1; at Cytochrome P450 2A6) was “Not Active” in each case.

`O=C1CN(/N=C/c2ccc([N+](=O)[O-])o2)C(=O)N1` [NITROFURANTOIN]: the IC50 entry (in data set [1]; in data set [2]; in data set [3]; against Cytochrome P450 2C9; against Cytochrome P450 2E1; on B2 bradykinin receptor) was “Not Active” throughout. The IC50 entry (against Cytochrome P450 2A6; in data set [4] (cho-k1)) was “Not Active” each time. For the same compound, the Ki entry (in data set [1]; in data set [3]; at Cytochrome P450 2C9; at Cytochrome P450 2E1; on Cytochrome P450 2A6) was “Not Active” in each case.

Regarding `O=C(O)CCc1nc(-c2ccccc2)c(-c2ccccc2)o1` [OXAPROZIN], the IC50 result (in data set [1]; in data set [2]; in data set [3]; against Cytochrome P450 2C9; against Cytochrome P450 2E1; against B2 bradykinin receptor) was “Not Active” in each case. Besides, the half-maximal inhibitory concentration (IC50) entry (against Cytochrome P450 2A6; in data set [4] (cho-k1)) was “Not Active” in each case. For the same compound, the Ki entry (in data set [1]; in data set [3]; at Cytochrome P450 2C9; on Cytochrome P450 2E1; at Cytochrome P450 2A6) was “Not Active” throughout.

For the compound `Cc1cc(C(C)(C)C)c(O)c(C)c1CC1=NCCN1` [OXYMETAZOLINE], the IC50 entry (in data set [1]; in data set [2]; in data set [3]; against Cytochrome P450 2C9; on Cytochrome P450 2E1; against B2 bradykinin receptor) was “Not Active” in each case. In addition, the IC50 entry is “Not Active” at Cytochrome P450 2A6 and 3060 nM in data set [4] (read-out: IC50). Further, the Ki entry in data set [1] is “Not Active”; in data set [3], “Not Active”; at Cytochrome P450 2C9 it was “Not Active”; at Cytochrome P450 2E1 it was “Not Active”; on Cytochrome P450 2A6, “Not Active”; in data set [4] it was 1940 nM.

For `NC(=O)NC(=O)Cc1ccccc1` [PHENACEMIDE], the IC50 entry (in data set [1]; in data set [2]; in data set [3]; at Cytochrome P450 2C9; against Cytochrome P450 2E1; on B2 bradykinin receptor) was “Not Active” in each case. For the same compound, the IC50 result (against Cytochrome P450 2A6; in data set [4] (cho-k1)) was “Not Active” in each case. For the same compound, the Ki result (in data set [1]; in data set [3]; on Cytochrome P450 2C9; at Cytochrome P450 2E1; at Cytochrome P450 2A6) was “Not Active” each time.

On to `O=C1c2ccccc2C(=O)C1c1ccccc1` [PHENINDIONE], for which the IC50 entry (in data set [1]; in data set [2]; in data set [3]; on Cytochrome P450 2C9; at Cytochrome P450 2E1; at B2 bradykinin receptor) was “Not Active” each time. For the same compound, the IC50 result (against Cytochrome P450 2A6; in data set [4] (cho-k1)) was “Not Active” throughout. Besides, the Ki result (in data set [1]; in data set [3]; at Cytochrome P450 2C9; at Cytochrome P450 2E1; on Cytochrome P450 2A6) was “Not Active” in each case.

`CCC1(c2ccccc2)C(=O)NC(=O)NC1=O` [PHENOBARBITAL]: the IC50 result (in data set [1]; in data set [2]; in data set [3]; against Cytochrome P450 2C9; against Cytochrome P450 2E1; against B2 bradykinin receptor) was “Not Active” each time. Also, the IC50 result (on Cytochrome P450 2A6; in data set [4] (cho-k1)) was “Not Active” throughout. Moreover, the Ki entry (in data set [1]; in data set [3]; on Cytochrome P450 2C9; at Cytochrome P450 2E1; at Cytochrome P450 2A6) was “Not Active” each time.

For `Oc1ccccc1` [PHENOL], the IC50 result (in data set [1]; in data set [2]; in data set [3]; against Cytochrome P450 2C9; on Cytochrome P450 2E1; at B2 bradykinin receptor) was “Not Active” each time. The IC50 result (against Cytochrome P450 2A6; in data set [4] (cho-k1)) was “Not Active” in each case. Besides, the Ki result (in data set [1]; in data set [3]; on Cytochrome P450 2C9; on Cytochrome P450 2E1; on Cytochrome P450 2A6) was “Not Active” throughout.

For `c1ccc2c(c1)Nc1ccccc1S2` [PHENOTHIAZINE], the IC50 entry (in data set [1]; in data set [2]; in data set [3]; at Cytochrome P450 2C9; at Cytochrome P450 2E1; against B2 bradykinin receptor) was “Not Active” each time. The half-inhibitory concentration (IC50) result (at Cytochrome P450 2A6; in data set [4] (cho-k1)) was “Not Active” each time. Moreover, the Ki entry (in data set [1]; in data set [3]; on Cytochrome P450 2C9; on Cytochrome P450 2E1; at Cytochrome P450 2A6) was “Not Active” each time.

Consider `CCN1CCN(C(=O)N[C@@H](C(=O)N[C@@H]2C(=O)N3[C@@H]2SC(C)(C)[C@@H]3C(=O)O)c2ccccc2)C(=O)C1=O` [PIPERACILLIN], for which the IC50 result (in data set [1]; in data set [2]; in data set [3]; against Cytochrome P450 2C9; against Cytochrome P450 2E1; on B2 bradykinin receptor) was “Not Active” each time. In addition, the half-maximal inhibitory concentration (IC50) result (against Cytochrome P450 2A6; in data set [4] (cho-k1)) was “Not Active” each time. Moreover, the Ki entry (in data set [1]; in data set [3]; on Cytochrome P450 2C9; on Cytochrome P450 2E1; on Cytochrome P450 2A6) was “Not Active” each time.

`COc1cc(NC(C)CCCN)c2ncccc2c1` (stereo unspecified) [PRIMAQUINE]: the 50% inhibitory concentration (IC50) result (in data set [1]; in data set [2]; in data set [3]; against Cytochrome P450 2C9; at Cytochrome P450 2E1; against B2 bradykinin receptor) was “Not Active” throughout. In addition, the IC50 entry (on Cytochrome P450 2A6; in data set [4] (cho-k1)) was “Not Active” in each case. Further, the Ki entry (in data set [1]; in data set [3]; on Cytochrome P450 2C9; on Cytochrome P450 2E1; at Cytochrome P450 2A6) was “Not Active” throughout.

`CC(CN1c2ccccc2Sc2ccccc21)N(C)C` (stereo unspecified) [PROMETHAZINE]: the IC50 entry (in data set [1]; in data set [2]; in data set [3]; at Cytochrome P450 2C9; on Cytochrome P450 2E1; against B2 bradykinin receptor) was “Not Active” each time. Also, the values for the IC50 entry (against Cytochrome P450 2A6; in data set [4] (read-out: IC50)) were “Not Active” and 68 nM, respectively. For the same compound, the Ki result was “Not Active” in data set [1]; “Not Active” in data set [3]; “Not Active” at Cytochrome P450 2C9; “Not Active” at Cytochrome P450 2E1; “Not Active” on Cytochrome P450 2A6; 43 nM in data set [4].

By IC50 is commonly meant the concentration needed to halve the response being measured. The Ki is the equilibrium dissociation constant of an inhibitor or competing ligand from its target.
